# Where a name gives a salt, the structure may show the parent alone.
# Molecular target: T1, Phosphodiesterase (Trypanosoma brucei, UniProt Q8WQX9)
# T1 sequence (Q8WQX9 whole entry): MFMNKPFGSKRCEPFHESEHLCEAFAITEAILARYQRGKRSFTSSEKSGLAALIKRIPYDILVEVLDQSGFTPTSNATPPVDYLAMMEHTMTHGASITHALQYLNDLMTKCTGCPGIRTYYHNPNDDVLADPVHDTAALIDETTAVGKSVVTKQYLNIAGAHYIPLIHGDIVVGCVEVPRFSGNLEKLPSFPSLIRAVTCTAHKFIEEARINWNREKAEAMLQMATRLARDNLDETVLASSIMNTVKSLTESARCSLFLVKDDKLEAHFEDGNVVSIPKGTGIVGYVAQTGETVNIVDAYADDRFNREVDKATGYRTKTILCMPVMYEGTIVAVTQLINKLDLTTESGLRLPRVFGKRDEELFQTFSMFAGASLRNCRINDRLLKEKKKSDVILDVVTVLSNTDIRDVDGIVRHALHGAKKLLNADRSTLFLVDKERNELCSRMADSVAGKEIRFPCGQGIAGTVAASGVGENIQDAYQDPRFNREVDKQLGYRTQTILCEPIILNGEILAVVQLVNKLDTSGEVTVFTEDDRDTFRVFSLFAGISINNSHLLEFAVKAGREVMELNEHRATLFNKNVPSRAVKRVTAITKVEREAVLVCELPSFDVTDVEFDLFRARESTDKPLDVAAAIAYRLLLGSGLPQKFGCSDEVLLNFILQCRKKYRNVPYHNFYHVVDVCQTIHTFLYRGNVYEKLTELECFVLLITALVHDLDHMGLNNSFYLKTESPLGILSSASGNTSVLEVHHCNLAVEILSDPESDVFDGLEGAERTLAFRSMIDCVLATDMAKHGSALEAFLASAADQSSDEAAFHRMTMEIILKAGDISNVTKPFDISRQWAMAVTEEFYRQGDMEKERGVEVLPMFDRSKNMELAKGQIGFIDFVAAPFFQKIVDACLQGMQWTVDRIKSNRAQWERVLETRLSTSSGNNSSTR
# Test: TbrPDEB1 Enzyme Assay
# Conditions: pH 7.4
# Protocol: In short, recombinant TbrPDEB1 and TbrPDEB2 were assayed in 10 mM Tris pH 7.4, bovine serum albumin (0.2 mg/mL), 10 mM MgCl2, 25µM cAMP (Enzo Lifesciences) and an excess of 5 endonucleotidase (>1000U) at 37 °C. Excess amount of 5 endonucleotidase was determined by titration (Enzo Lifesciences). Reactions were terminated by the addition of BioMol green (Enzo Lifesciences) which was also used to detect changes in the level of phosphate. This was measured by absorbance at 620 nm using a Tecan Sunrise plate reader. […] Inhibitors were preincubated with the assay mixture for 5 min prior to the addition of substrate. Inhibition was determined by the change in the initial velocity relative to a vehicle only control for both compound screening and for the determination of IC50 values. Initial velocity was determined by linear regression and IC50 values were calculated
row,IC50 [µM],Structure (SMILES)
1,2.9,COc1cccc(Nc2c(C(N)=O)cnc3c(C)cc(S(=O)(=O)c4cccc(C(=O)O)c4)cc23)c1 [3-(3-carbamoyl-4-(3-methoxyphenylamino)-8-methylquinolin-6-ylsulfonyl)benzoic acid (11)]
2,12,COc1cccc(Nc2c(C(N)=O)cnc3ccc(-c4ccc5cnn(C)c5c4)cc23)c1 [4-((3-Methoxyphenyl)amino)-6-(1-methyl-1H-indazol-6-yl)quinoline-3-carboxamide (19b)]
3,9,COc1cccc(Nc2c(C(N)=O)cnc3c(C)cc(-c4cn[nH]c4)cc23)c1 [4-((3-Methoxyphenyl)amino)-8-methyl-6-(1H-pyrazol-4-yl)quinoline-3-carboxamide  (17j)]
4,3.5,Cc1cccc(Nc2c(C(N)=O)cnc3c(C)cc(-c4ccc5cnn(C)c5c4)cc23)c1 [8-Methyl-6-(1-methyl-1H-indazol-6-yl)-4-(m-tolylamino)quinoline-3-carboxamide (24e)]
5,3.5,COC(=O)c1cccc(S(=O)(=O)c2cc(C)c3ncc(C(N)=O)c(Nc4cccc(OC)c4)c3c2)c1 [Methyl 3-(3-carbamoyl-4-(3-methoxyphenylamino)-8-methylquinolin-6-ylsulfonyl)benzoate (10a)]
6,6,"COc1cccc(Nc2c(C(N)=O)cnc3c(C)cc(-c4cccc(-c5nnc(C)s5)c4)cc23)c1 [4-((3-Methoxyphenyl)amino)-8-methyl-6-(3-(5-methyl-1,3,4-thiadiazol-2-yl)phenyl) quinoline-3-carboxamide, formic acid salt (17o)]"
7,3.7,"COc1ccc(Nc2c(C(N)=O)cnc3c(C)cc(-c4ccc5cnn(C)c5c4)cc23)cc1C [4-(4-Methoxy-3-methylphenylamino)-8-methyl-6-(1-methyl-1H-indazol-6-yl)quinoline-3-carboxamide, formic acid salt (24f)]"
8,3.7,CCc1cc(-c2ccc3cnn(C)c3c2)cc2c(Nc3cccc(OC)c3)c(C(N)=O)cnc12 [8-Ethyl-4-((3-methoxyphenyl)amino)-6-(1-methyl-1H-indazol-6-yl)quinoline-3-carboxamide (19c)]
9,23,COc1cccc(Nc2c(C(N)=O)cnc3c(C)cc(-c4cccc(N)c4)cc23)c1 [6-(3-Aminophenyl)-4-((3-methoxyphenyl)amino)-8-methylquinoline-3-carboxamide (17f)]
10,28,COC(=O)c1cccc(-c2cc(C)c3ncc(C(N)=O)c(NCc4ccccc4)c3c2)c1 [Methyl 3-(4-(benzylamino)-3-carbamoyl-8-methylquinolin-6-yl)benzoate (22c)]
11,16,COC(=O)c1cccc(Nc2cc(C)c3ncc(C(N)=O)c(Nc4cccc(OC)c4)c3c2)c1 [Methyl 3-(3-carbamoyl-4-(3-methoxyphenylamino)-8-methylquinolin-6-ylamino)benzoate (13)]
12,12,COc1cccc(Nc2c(C(N)=O)cnc3c(C)cc(-c4cccc(N5CCOCC5)c4)cc23)c1 [4-((3-Methoxyphenyl)amino)-8-methyl-6-(3-morpholinophenyl)quinoline-3-carboxamide (17s)]
13,6.7,COc1cccc(Nc2c(C(N)=O)cnc3c(C)cc(-c4cccc(-c5nnn[nH]5)c4)cc23)c1 [6-(3-(1H-Tetrazol-5-yl)phenyl)-4-((3-methoxyphenyl)amino)-8-methylquinoline-3-carboxamide (17m)]
14,5.9,COc1cccc(Nc2c(C(N)=O)cnc3c(C)cc(-c4ccc5[nH]ccc5c4)cc23)c1 [6-(1H-Indol-5-yl)-4-((3-methoxyphenyl)amino)-8-methylquinoline-3-carboxamide (17t)]
15,5.9,Cc1cc(-c2cccc(-c3ncco3)c2)cc2c(NC3CCCC3)c(C(N)=O)cnc12 [4-(Cyclopentylamino)-8-methyl-6-(3-(oxazol-2-yl)phenyl)quinoline-3-carboxamide (28)]
16,26,COC(=O)c1cccc(-c2cc(C)c3ncc(C(N)=O)c(Nc4cccnc4)c3c2)c1 [Methyl 3-(3-carbamoyl-8-methyl-4-(pyridin-3-ylamino)quinolin-6-yl)benzoate (22f)]
17,4.2,CCOc1cccc(Nc2c(C(N)=O)cnc3c(C)cc(-c4ccc5cnn(C)c5c4)cc23)c1 [4-((3-Ethoxyphenyl)amino)-8-methyl-6-(1-methyl-1H-indazol-6-yl)quinoline-3-carboxamide (24c)]
18,5.9,COc1cccc(Nc2c(C(N)=O)cnc3c(C)cc(-c4cccc(-c5ncco5)c4)cc23)c1 [4-((3-Methoxyphenyl)amino)-8-methyl-6-(3-(oxazol-2-yl)phenyl)quinoline-3-carboxamide (17p)]
19,31,CNC(=O)c1cccc(S(=O)(=O)c2cc(C)c3ncc(C(N)=O)c(Nc4cccc(OC)c4)c3c2)c1 [4-(3-methoxyphenylamino)-8-methyl-6-(3-(methylcarbamoyl)phenylsulfonyl)quinoline-3-carboxamide (12b)]

row,Structure (SMILES),IC50 [µM]
1,COc1cccc(Nc2c(C(N)=O)cnc3c(C)cc(S(=O)(=O)c4cccc(C(=O)N(C)C)c4)cc23)c1 [GSK-256066],24

# Source: BindingDB's records for doi:10.1111/cbdd.12443 (Northeastern University, 2015)
